One series concerns adult patients with RA. As to the kind of experiment: Study 1: DAS28 change by CRP category. It is filed as in vivo, human. How it is done: 407 patients with active RA enrolled in the 2 study arms. Of these patients, 299 (73.5%) patients completed the study until Week 52 and were evaluated.
Patients were grouped into three cohorts based on baseline CRP concentrations: low (<1 mg/dL); intermediate (1-4 mg/dL); and high (>4 mg/dL). Analyses were further conducted in two categories of patients according to their change in CRP concentrations at Week 12: those with a ≧20% decrease in CRP from baseline; or those with a <20% decrease in CRP from baseline. The following efficacy and radiographic measures were analyzed at Week 52 in the three baseline CRP categories and in the two Week 12 change in CRP categories: DAS28, ACR 20/50/70, Health assessment questionnaire (HAQ), and Total Sharp score (TSS).

In series [1] the test system is patients with severe, active RA. As to the kind of experiment: Study 2 / Study 3 OLE (adalimumab monotherapy): FACIT-F fatigue. It is filed as in vivo, human. How it is done: In addition to the SF-36 instrument, the Health Utilities Index Mark 3 (HUI3) and the Functional Assessment of Chronic Illness Therapy-Fatigue (FACIT-F) questionnaires were administered at baseline, 12 weeks, and the end of the study.
The HUI3 scale is 0-1, with “1” denoting perfect health and “0” denoting death. FACIT-F scores range from 0-52, with higher scores representing less fatigue. The SF-36 includes one multi-item scale that assesses eight different dimensions of health, including physical and psychosocial components. For each dimension a value of 0-100 is given, with higher numbers representing less impairment. Changes in HUI3 of ≧0.03, in FACIT-F of ≧4 and in SF-36 of ≧4.4 (physical subscales) and ≧3.1 (mental subscales) are considered clinically meaningful.
All patients studied had severe, active RA. Patients' fatigue was measured by the FACIT-F, which is validated for RA.
FACIT-F was administered at baseline, at 1 or 2 time points during the study, and at the end of the study. The questionnaire asked each patient the following “Below is a list of statements that other people with your illness have said are important. By circling one (1) number per line, please indicate how true each statement has been for you during the past 7 days.” The questions in the questionnaire used to determine the FACIT score included the following, where each patient indicated the appropriate number (0-4): I feel fatigued; I feel weak all over; I feel listless (“washed out”); I feel tired; I have trouble starting things because I am tired; I have trouble finishing things because I am tired; I have energy; I am able to do my usual activities; I need to sleep during the day; I am too tired to eat; I need help doing my usual activities; I am frustrated by being too tired to do the things I want to do; I have to limit my social activity because I am tired. FACIT-F scores range from 0-52, with higher scores representing less fatigue. FACIT-F changes of ≧4 are considered clinically meaningful.
Data were obtained from a health economics companion study to a pivotal trial of adalimumab, which rolled over into a long-term, open-label extension (OLE) study. […] Patients' fatigue was measured by the FACIT-F questionnaire. FACIT-F was administered at baseline, and at several time points during the study. FACIT-F scores range from 0-52, with higher scores representing less fatigue. Changes in FACIT-F scores of ≧4 were considered clinically meaningful.
In addition to clinical parameters, the SF-36 instrument, the Health Utilities Index Mark 3 (HUI3), and the Functional Assessment of Chronic Illness Therapy-Fatigue (FACIT-F) questionnaires were administered at baseline, and at weeks 12, 26, 50, 74, 98, 122, 146 and 170, respectively. The HUI3 scale ranges from 0-1, with “1” denoting perfect health and “0” denoting death. FACIT-F scores range from 0-52, with higher scores representing less fatigue. SF-36 scores range from 0-100 with higher scores indicating improvement in HRQoL. Changes in HUI3 scores of ≧0.03, 1 FACIT-F scores of ≧4, 2 and individual SF-36 domain scores of 5-103 are considered clinically meaningful.

The test system of series [2] is patients with early vs. long-standing RA. The note with it: human, in vivo.
Description: Study J was a 2-year randomized controlled trial in patients with early RA (disease duration<3 years). Participants in these clinical trials and in other phase Mb studies, were routinely evaluated for safety. Reports of serious adverse events (SAE) were tabulated using MedDRA coding by events per 100-patient-years (E/100PY). SAE rates were compared with respect to disease duration between patients with early (<3 yrs) and long-standing RA.

2 molecules from patent US20120171123A1, “USES AND COMPOSITIONS FOR TREATMENT OF RHEUMATOID ARTHRITIS” (priority 2006, published 2012) can be followed below.

Marks after values point to notes of the source that are not given here.

Turning to `CN(Cc1cnc2nc(N)nc(N)c2n1)c1ccc(C(=O)N[C@@H](CCC(=O)O)C(=O)O)cc1` [mtx alone, methotrexate], the DAS28 mean change with adult patients with RA (week 52, baseline CRP 1-4 mg/dL) was −1.2; in the series on adult patients with RA (week 52, baseline CRP <1 mg/dL) it was −1.3; in the series on adult patients with RA (week 52, baseline CRP >4 mg/dL) it was −1.7.
“adalimumab: human anti-TNF mAb (HUMIRA, Abbott Laboratories), described in U.S. Pat. No. 6,090,382 as D2E7”: the “FACIT-F change from baseline” value in series [1] (12 weeks) was found to be 7.2. Moreover, the “mean FACIT-F change from baseline” value in series [1] (week 26 (6 months), monotherapy) is given as 8.5 b, c; in series [1] (week 26 (6 months), monotherapy, listed as ada), 8.5; in series [1] (week 50), 7.3 ^b; in series [1] (week 98), 7.2 ^b; in series [1] (week 146), 7.1 ^b; in series [1] (week 170) it was 7.2 ^b. Also, the Any serious infection in series [2] is 0.040 N/PY. The same molecule came in with a Serious infections in series [2] of 4.8 E/100PY.
